According to the supplement of paper PMC10307832:

What was measured:
Experiment in all cases: relative viability (nuclei count vs DMSO), 5 days (fraction); higher = more cells survive
4EGI-1 + Navitoclax = compound: O=C(O)C(Cc1ccccc1[N+](=O)[O-])=NNc1nc(-c2ccc(Cl)c(Cl)c2)cs1 (mixture of isomers) [4EGI-1] + CC1(C)CCC(c2ccc(Cl)cc2)=C(CN2CCN(c3ccc(C(=O)NS(=O)(=O)c4ccc(N[C@H](CCN5CCOCC5)CSc5ccccc5)c(S(=O)(=O)C(F)(F)F)c4)cc3)CC2)C1 [Navitoclax] (partner 0.5 µM)
In short: (§1)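 Values are medians from duplicate plates. Each reflects relative viability, defined as the nuclei count of treated wells over that of vehicle wells. Lung cancer cell lines in 1536-well plates were pin-tool dosed one day after seeding with one drug alone or with a fixed anchor-drug dose plus five library-drug doses (not always all listed) in √10 steps, then fixed, stained and imaged at 4× after 5 days.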

4EGI-1 + Dasatinib = compound: O=C(O)C(Cc1ccccc1[N+](=O)[O-])=NNc1nc(-c2ccc(Cl)c(Cl)c2)cs1 (mixture of isomers) [4EGI-1] + Cc1nc(Nc2ncc(C(=O)Nc3c(C)cccc3Cl)s2)cc(N2CCN(CCO)CC2)n1 [Dasatinib] (partner 0.075 µM)
In short: as §1

XMD8-85 + Crizotinib = compound: CN1CCN(CC1)C2=CC(=C(C=C2)NC3=NC=C4C(=N3)N(C5=CC=CC=C5C(=O)N4C)C)OC [XMD8-85] + C[C@@H](Oc1cc(-c2cnn(C3CCNCC3)c2)cnc1N)c1c(Cl)ccc(F)c1Cl [Crizotinib] (partner 1 µM)
In short: as §1

4EGI-1 + Luminespib = compound: O=C(O)C(Cc1ccccc1[N+](=O)[O-])=NNc1nc(-c2ccc(Cl)c(Cl)c2)cs1 (mixture of isomers) [4EGI-1] + CCNC(=O)c1noc(-c2cc(C(C)C)c(O)cc2O)c1-c1ccc(CN2CCOCC2)cc1 [Luminespib] (partner 0.01 µM)
In short: as §1

Cell Line	relative viability (4EGI-1 + Navitoclax; first compound 0.5 µM)	relative viability (4EGI-1 + Navitoclax; first compound 1.581 µM)	relative viability (4EGI-1 + Navitoclax; first compound 5 µM)	relative viability (4EGI-1 + Navitoclax; first compound 15.81 µM)	relative viability (4EGI-1 + Navitoclax; first compound 50 µM)	relative viability (4EGI-1 + Dasatinib; first compound 0.5 µM)	relative viability (4EGI-1 + Dasatinib; first compound 1.581 µM)	relative viability (4EGI-1 + Dasatinib; first compound 5 µM)	relative viability (4EGI-1 + Dasatinib; first compound 15.81 µM)	relative viability (4EGI-1 + Dasatinib; first compound 50 µM)	relative viability (XMD8-85 + Crizotinib; first compound 0.08 µM)	relative viability (XMD8-85 + Crizotinib; first compound 0.253 µM)	relative viability (XMD8-85 + Crizotinib; first compound 0.8 µM)	relative viability (XMD8-85 + Crizotinib; first compound 2.53 µM)	relative viability (XMD8-85 + Crizotinib; first compound 8 µM)	relative viability (4EGI-1 + Luminespib; first compound 0.5 µM)	relative viability (4EGI-1 + Luminespib; first compound 1.581 µM)	relative viability (4EGI-1 + Luminespib; first compound 5 µM)	relative viability (4EGI-1 + Luminespib; first compound 15.81 µM)	relative viability (4EGI-1 + Luminespib; first compound 50 µM)
NCI-H520	1.23	1.11	1.14	1.02	0.431	0.204	0.276	0.187	0.215	0.153	0.796	0.572	0.914	0.673	0.324	0.231	0.241	0.184	0.256	0.205
NCI-H647	1.27	–	1.12	0.995	0.307	0.149	–	0.186	0.167	0.0838	1.12	1.1	1.05	1.14	0.213	0.227	–	0.149	0.137	0.141
201T	1.25	1.21	1.2	1.19	1.19	0.574	0.551	0.581	0.568	0.318	1.02	1.04	1.03	1.03	0.949	1.08	0.973	1.09	0.92	0.782
COR-L 105	0.618	0.668	1.02	0.597	0.43	0.357	0.335	0.326	0.235	0.248	–	0.807	0.793	0.455	0.255	1.04	0.648	0.801	0.667	0.598
IA-LM	0.889	0.751	0.444	0.112	0.0676	–	–	–	–	–	0.678	0.889	0.91	–	0.127	–	–	–	–	–
LCLC-97TM1	0.57	–	0.408	0.374	0.267	0.733	0.708	0.873	0.878	0.739	0.321	0.569	0.558	0.456	0.333	0.875	0.675	0.715	0.955	0.0986
NCI-H1944	1.19	–	1.07	0.969	0.94	0.22	–	0.199	0.172	0.135	1.02	0.999	1.3	1.35	0.979	0.717	–	0.774	0.633	0.561
EPLC-272H	1.31	0.938	1.35	0.951	0.969	0.504	–	0.34	0.252	0.138	–	0.678	1.03	0.947	0.691	0.498	–	0.318	0.251	0.206
NCI-H2342	–	–	–	–	–	0.299	0.3	0.292	0.292	0.257	–	–	–	–	–	0.854	0.758	0.724	0.904	0.677
NCI-H1437	1.19	1	1.04	0.395	0.178	0.427	0.409	0.421	0.232	0.103	0.76	0.923	1.14	0.856	0.491	1.19	1.05	1.15	0.862	0.457
LU99A	0.765	–	0.87	0.986	0.428	0.615	0.405	0.54	0.449	0.235	0.476	0.484	0.687	0.626	0.367	0.246	0.271	0.308	0.228	0.205
NCI-H1993	0.952	0.895	0.77	0.7	0.483	0.595	0.616	0.543	0.467	0.441	0.783	0.77	0.869	0.944	0.64	1.03	0.786	0.801	0.637	0.496
NCI-H838	1.24	–	1.26	1.04	0.218	0.322	–	0.245	0.267	0.19	0.774	0.808	1.07	0.815	0.292	0.335	–	0.226	0.229	0.144
NCI-H322M	1.21	1.18	1.16	1.17	1.41	0.23	–	0.243	0.237	0.256	0.872	1.03	0.929	0.996	0.55	1	–	0.855	0.727	0.321
NCI-H3122	1.01	0.975	1.02	1.06	1.01	0.967	0.739	0.881	0.841	0.239	0.261	0.258	0.274	0.329	0.331	0.082	0.129	0.0842	0.106	0.084
